Results reported in ChEMBL document CHEMBL5154691, “Discovery of novel verinurad analogs as dual inhibitors of URAT1 and GLUT9 with improved Druggability for the treatment of hyperuricemia” (Eur J Med Chem, 2022).

Columns and labels:
[1] = Inhibition of URAT1 I481M mutant (unknown origin)-mediated 14C-uric acid uptake expressed in HEK293 cells using 14C-uric acid as substrate preincubated for 30 mins followed by substrate addition and measured after 15 mins by liquid scintillation counting analysis; type: cell-based; details: Homo sapiens
[2] = Inhibition of URAT1 F358Y mutant (unknown origin)-mediated 14C-uric acid uptake expressed in HEK293 cells using 14C-uric acid as substrate preincubated for 30 mins followed by substrate addition and measured after 15 mins by liquid scintillation counting analysis; type: cell-based; details: Homo sapiens
[3] = Tmax in Sprague-Dawley rat at 5 mg/kg, po measured upto 36 hrs by LC-MS/MS analysis; type: ADME, organism-based; details: in vivo
[4] = Oral bioavailability in Sprague-Dawley rat at 5 mg/kg measured upto 36 hrs by LC-MS/MS analysis; type: ADME, organism-based; details: in vivo
[5] = MRT (0 to infinity) in Sprague-Dawley rat at 5 mg/kg, po by LC-MS/MS analysis; type: ADME, organism-based; details: in vivo
[6] = Inhibition of URAT1 R477K mutant (unknown origin)-mediated 14C-uric acid uptake expressed in HEK293 cells using 14C-uric acid as substrate preincubated for 30 mins followed by substrate addition and measured after 15 mins by liquid scintillation counting analysis; type: cell-based; details: Homo sapiens
[7] = Cytotoxicity against human HK-2 cells assessed as reduction in cell viability incubated for 48 hrs by MTT assay; type: toxicity, cell-based
[8] = Inhibition of URAT1 F241Y mutant (unknown origin)-mediated 14C-uric acid uptake expressed in HEK293 cells using 14C-uric acid as substrate preincubated for 30 mins followed by substrate addition and measured after 15 mins by liquid scintillation counting analysis; type: cell-based; details: Homo sapiens
[9] = molecular target: T1, Solute carrier family 2, facilitated glucose transporter member 9 (Homo sapiens) (UniProt Q9NRM0); experiment: Inhibition of GLUT9 (unknown origin) expressed in HEK293T cells assessed as inhibition of uric acid-induced current at 10 uM by whole cell patch clamp technique; type: cell-based
T1 sequence (whole entry): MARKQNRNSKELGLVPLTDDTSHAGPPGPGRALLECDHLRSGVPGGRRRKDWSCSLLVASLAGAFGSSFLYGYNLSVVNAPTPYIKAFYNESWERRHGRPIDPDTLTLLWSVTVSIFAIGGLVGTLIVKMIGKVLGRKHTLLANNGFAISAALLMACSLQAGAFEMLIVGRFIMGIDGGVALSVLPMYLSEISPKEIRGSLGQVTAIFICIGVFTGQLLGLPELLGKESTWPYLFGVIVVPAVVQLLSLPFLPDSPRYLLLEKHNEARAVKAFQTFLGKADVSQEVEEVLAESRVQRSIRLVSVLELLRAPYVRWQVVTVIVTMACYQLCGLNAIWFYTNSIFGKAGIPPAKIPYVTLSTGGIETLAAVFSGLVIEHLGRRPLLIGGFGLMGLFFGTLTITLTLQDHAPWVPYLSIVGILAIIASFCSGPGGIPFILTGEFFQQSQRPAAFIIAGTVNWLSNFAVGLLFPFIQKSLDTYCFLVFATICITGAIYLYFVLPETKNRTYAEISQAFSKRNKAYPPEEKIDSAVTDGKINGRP

[10] = molecular target: T2, Broad substrate specificity ATP-binding cassette transporter ABCG2 (Homo sapiens, UniProt Q9UNQ0); experiment: Inhibition of ABCG2 (unknown origin) expressed in HEK293 cells membrane vesicles assessed as inhibition of ATP-induced 14C-uric acid uptake preincubated for 15 mins followed by incubation with ATP and substrate for 5 mins by liquid scintillation counting analysis; type: toxicity, cell membranes, Membrane vesicle
T2 sequence (Q9UNQ0 whole entry): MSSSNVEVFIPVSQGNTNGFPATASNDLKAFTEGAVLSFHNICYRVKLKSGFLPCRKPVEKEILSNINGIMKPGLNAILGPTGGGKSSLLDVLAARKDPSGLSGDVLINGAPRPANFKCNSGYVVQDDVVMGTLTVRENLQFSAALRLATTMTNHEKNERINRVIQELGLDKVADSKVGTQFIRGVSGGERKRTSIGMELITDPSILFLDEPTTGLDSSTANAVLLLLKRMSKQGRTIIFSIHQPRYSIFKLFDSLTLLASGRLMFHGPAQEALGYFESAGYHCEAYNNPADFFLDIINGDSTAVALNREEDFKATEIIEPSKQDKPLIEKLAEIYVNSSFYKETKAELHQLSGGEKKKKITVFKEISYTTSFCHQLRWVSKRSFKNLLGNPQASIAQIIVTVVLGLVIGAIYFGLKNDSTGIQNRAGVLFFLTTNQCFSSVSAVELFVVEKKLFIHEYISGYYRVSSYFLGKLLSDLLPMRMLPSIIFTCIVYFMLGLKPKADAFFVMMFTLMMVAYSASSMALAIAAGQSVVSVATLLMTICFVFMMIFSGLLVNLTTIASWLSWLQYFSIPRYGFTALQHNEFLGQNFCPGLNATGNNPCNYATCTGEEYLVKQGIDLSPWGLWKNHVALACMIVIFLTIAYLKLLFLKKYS

- IC50 [1]: 310 nM
- IC50 [2]: 780 nM
- Tmax [3]: 0.5 h
- bioavailability [4]: 30.1%
- MRT inf [5]: 3.17 h
- IC50 [6]: 2170 nM
- IC50 [8]: 310 nM
- inhibition [9]: 51%
Structure (SMILES): N#Cc1ccc(Nc2cnccc2SCc2ccccc2C(=O)[O-])c2ccccc12.[Na+]
- IC50 at 48 h [7]: 167000 nM
- IC50 [10]: 26700 nM
